Assay results taken from PMC8170916, “Sublingual AKBA Exerts Antidepressant Effects in the Aβ-Treated Mouse Model” (Biomolecules, 2021).

Tests used:
kynurenine (KYN) = experiment: Kynurenine quantification in PFC and HIPP by HPLC with electrochemical detection; assay type: in vivo; details: mice 7 days after icv Aβ 4 µM, sublingual AKBA 5 mg/kg 30 min earlier
Protocol: All behavioral experiments were conducted at 5 or 30 min after sublingual administrations of AKBA or vehicle in either SHAM or Aβ-treated mice. Based upon behavioral outcomes observed, neurochemical and biochemical quantifications were performed 30 min after AKBA or vehicle administration in either SHAM or Aβ-treated mice.
Anesthetized animals were sacrificed by cervical dislocation. Brains were immediately removed and kept on ice for dissection of PFC and HIPP, according to the atlas of Paxinos and Franklin. Tissues were frozen and stored at −80 °C until analyses were carried out. Samples (PFC and HIPP) were homogenized (1:10 w/v) at 4 °C using a PBS buffer containing a 1:100 protease and phosphatase inhibitor cocktail (HALT inhibitors, Thermo Fisher Scientific, Cleveland, OH, USA) for biochemical analyses or perchloric acid 0.1 M for neurochemical analyses. Homogenates were centrifuged at 13,000× g at 4 °C for 20 min, and supernatants were used for further determinations.
5-HT, noradrenaline (NA), and KYN levels were measured in the PFC and HIPP of mice by HPLC coupled with an electrochemical detector (Ultimate ECD, Thermo Scientific Dionex, Milan, Italy) as already reported. Separation was performed by a LC18 reverse phase column (Kinetex, 150 mm × 3.0 mm, ODS 5 μm; Phenomenex, Castel Maggiore-Bologna, Italy). The detection was accomplished by a thin layer amperometric cell (Thermo Scientific Dionex, Milan, Italy) with a 5 mm diameter glassy carbon electrode at a working potential of 400 mV (5-HT and NA) or 0.750 mV (KYN) vs. Pd. The mobile phase consisted of an aqueous buffer containing 75 mM NaH2PO4, 1.7 mM octane sulfonic acid, 0.3 mM EDTA, and acetonitrile 10%, buffered at pH 3.0. The flow rate was kept at 0.7 mL·min-1 by an isocratic pump (Shimadzu LC-10 AD, Kyoto, Japan). Data acquisition and integration were performed by using Chromeleon software (version 6.80, Thermo Scientific Dionex, Milan, Italy). GLU concentrations were determined by HPLC coupled with fluorescence detection (emission length 460 nm; excitation length 340 nm), as previously published. Analyses were carried out using an LC18 reverse phase column (Kinetex, 150 mm × 3.0 mm, ODS 5 μm; Phenomenex, Castel Maggiore, Bologna, Italy) and detection was accomplished by pre-column derivatization with ophthalaldehyde/mercaptopropionic acid. The mobile phase consisted of a 50 mM sodium acetate buffer, at pH 6.95, with gradient methanol increasing linearly from 2 to 30% (v/v) over a 40 min run. […] Results were analyzed by Borwin software (version 1.50; Jasco, Cremella, Italy) and the amino acid concentration was expressed as µM. All data were normalized for total area weight and were expressed as concentration/mg of tissue.

Aβ-treated mice [1] = experiment: Splash test in Aβ-treated mice; assay type: in vivo; details: mice 7 days after icv Aβ 4 µM
Aβ-treated mice [2] = experiment: Tail suspension test in Aβ-treated mice; assay type: in vivo; details: mice 7 days after icv Aβ 4 µM, sublingual AKBA 5 mg/kg 30 min before, Aβ vs SHAM
[3] = Cerebral AKBA quantification by GC-MS/IT after sublingual or intranasal administration; assay type: in vivo, mice; details: 5 mg/kg
Protocol: AKBA (Cayman Chemical Company) was dissolved in sunflower oil, this vehicle was chosen in order to maintain a better tasting and higher density of the final solution thus reducing reflux through the digestive tract. […] Ten µL of the solution (or vehicle alone) was sublingually administered to mice. For intranasal administration, requiring more hydrophilic solution, AKBA was dissolved in DMSO and saline (1:3, v/v), and given to mice at the same final dose of 5 mg/kg. Cerebral AKBA was quantified in a separate subset of mice at 5, 15 and 30 min after its administration, either sublingually or intranasally.
After administration, whole brains were put in 1 mL of a solution of chloroform/methanol (1:1 v/v), sonicated and then homogenates were centrifuged at 4 °C for 20 min (10,000 rpm). The pellets were then removed, and the remaining supernatants were dried on sodium sulphate anhydrous, filtered with 0.20 µm PTFE syringe filters and used for chemical analysis. The quantification of 3-O-acetyl-11-keto-β-boswellic acid (AKBA) was performed by using GC-MS/IT equipment composed of a gas chromatograph GC-7890B (Agilent Technologies, Santa Clara, CA, USA) coupled with an ion trap mass spectrometer IT-240 (Agilent Technologies).
The gas chromatograph was equipped with a VF-5 ms (Agilent J&W GC Columns) capillary column, 30 m × 0.25 mm i.d. × 0.25 µm. The column oven was set at 50 °C for 1 min after injection; then the temperature was increased from 50 °C to 300 °C with a ramp of 5 °C/min and a hold time of 10 min. The purge process was performed at the end of each run, increasing the oven temperature from 300 °C to 325 °C at 10 °C/min and a hold time of 1.5 min. The total time for each run was approximately 65 min. The injection volume was 2 µL (splitless) with a continuous flow rate of 1 mL/min of ultra-high purity helium (BIP®) and an injector temperature of 250 °C.
The MS electron multiplier voltage was set at 1450 V, and an ionization time of 65,000 µs was used, running in the electron impact (EI) mode. The transfer line, ion trap and manifold temperatures were set at 270 °C, 180 °C and 70 °C, respectively. The mass spectrometer firstly operated in full scan mode (50–700 m/z) with the ionizing voltage at 70 eV. […] Peaks at m/z 408 and m/z 393 were identified as M-AcOH-CO2 and M-AcOH-CO2-CH3. The peak at m/z 273 was identified as fragment A, resulting from retro-Diels–Alder fragmentation, while the peak at m/z 232 was identified as fragment B, generated from McLafferty fragmentation. These characteristic fragments were selected as a mass target to develop the MS acquisition method operating in single ion scan mode (SIS) to improve the LOD and LOQ for AKBA quantification. […]

[4] = sublingual AKBA 5 mg/kg 30 min before testing, Aβ vs SHAM, Aβ+AKBA vs Aβ

For CC(=O)O[C@@H]1CC[C@@]2(C)[C@@H](CC[C@]3(C)[C@@H]2C(=O)C=C2[C@@H]4[C@@H](C)[C@H](C)CC[C@]4(C)CC[C@]23C)[C@@]1(C)C(=O)O [AKBA, 3-O-acetyl-11-keto-β-boswellic acid], the “KYN levels in the HIPP” value (kynurenine (KYN); HIPP) was “prevented the increase in KYN levels”, the “KYN levels in the PFC” value (kynurenine (KYN); PFC) was “prevented such an increase” and the “Depressive-like behavior induced by Aβ in the splash test, 5 min after AKBA” value (Aβ-treated mice [1]; sublingual AKBA 5 mg/kg 5 min before testing) was “not reverted”. For the same molecule, the “Latency to leak in the splash test” value (Aβ-treated mice [1]; [4]) was “such an outcome was reverted”, the “Time spent performing self-care in the splash test” value (Aβ-treated mice [1]; [4]) was “prevented such an effect” and the “Immobility time in the tail suspension test” value (Aβ-treated mice [2]) was “prevented such an effect”. For the same molecule, the “Cerebral AUCs, sublingual vs intranasal” value ([3]; same dose by both routes) was “sublingual route of administration was characterized by higher bioavailability”, the “Crossing of the blood brain barrier” value ([3]; sublingual or intranasal) was “rapidly crossed the blood brain barrier” and the “Time of highest cerebral AKBA concentrations after administration” value ([3]; sublingual or intranasal, sampled at 5, 15, 30 min) was 5 min. The “Cerebral AKBA levels (whole brain)” value ([3]; sublingual vs intranasal, 5, 15 and 30 min after administration) was “significantly higher after sublingual administration compared to intranasal”.
